Results from US12629336B2, “Compositions and methods of use thereof for treatment of mastitis” (CureMast, Inc., priority 2020, dated 2026).
Several values for one entry are separate records, joined by “and”; a condition that tells them apart may be missing. Equal entries are not always repeated. Where two headings read alike, the source gives them in different places.

Assays:
[1] = paper chromatography: migration/release of NAC from monoolein emulsions; format: physicochemical; conditions: deionized water as solvent, tetrazolium/ammonia detection
Excerpt: Paper chromatography was utilized to evaluate the release of soluble NAC from the formulations of Examples 1 and 2 using a colorimetric reagent to develop the chromatograms as follows:
Three strips of chromatography paper were marked with pencil to indicate the “origin” and spotted with a small dot of each of the two samples. The third strip was spotted with a drop of aqueous NAC only. Each strip was suspended in a separate jar with deionized water just covering the bottom of the jar. The bottom edge of each paper strip was positioned to be immersed in water, which gradually migrated up the strip. After upward water migration wet approximately 6 to 8 cm of the paper, the “solvent front” was marked with pencil and the strips were allowed to dry completely.
Tetrazolium blue chloride (Sigma no. T4375, lot no. SHBM0991) was dissolved in denatured ethyl alcohol to obtain a 1% solution and transferred to a small spray bottle. The dry chromatography strips were placed in a chemical fume hood, sprayed with the tetrazolium solution, and allowed to dry again. An ammonia chamber was created by coving the bottom of a large glass canister with concentrated ammonium hydroxide and the chromatography paper strips were suspended just above the liquid with the canister covered until a purple color developed, indicating the presence of NAC.

bacteria = conditions: in vitro; value in brackets; cited from earlier work
epithelial cells = conditions: in vitro, cited from earlier work

Rf value of NAC [1] | migration of NAC from the origin [1] | Compound | minimum inhibitory concentration (MIC) required to kill bacteria (bacteria) [%] | cytotoxic limit (CTL) above which epithelial cells are killed (epithelial cells) | cytotoxic limit (CTL) above which epithelial cells are killed (epithelial cells; value in brackets) [%]
0.91 and 0.67 | migrated from the origin | CC(=O)N[C@@H](CS)C(=O)O [aqueous NAC, N-acetyl-L-cysteine] | – | – | –
– | – | polyhexamethylene biguanide hydrochloride [PHMB] | 0.01 | greater than 15 mg per liter | > 0.15
